Consider 6 compounds from ChEMBL document CHEMBL3862025, “Novel substituted hydrazono indolo[2,1-b]quinazoline-6,12-dione analogues as cytostatic agents: Synthesis, crystal structure, biological evaluation and molecular docking studies” (Bioorg Med Chem Lett, 2016).

Converted amounts (≈) assume the structure as drawn.

Data set [1] can be described thus: Cytotoxicity against human MCF7 cells assessed as inhibition of cell viability after 48 hrs by MTT assay. It is filed as functional, cell-based. The following applies: MCF7, 48 h. For orientation: Tetrazolium dyes change colour on reduction, which living cells bring about.
Data set [2] can be described thus: Cytotoxicity against human A549 cells assessed as inhibition of cell viability after 48 hrs by MTT assay. It is filed as functional, cell-based. The settings on record: A549, 48 h.
The nature of data set [3]: Cytotoxicity against human HeLa cells assessed as inhibition of cell viability after 48 hrs by MTT assay. It is filed as functional, cell-based.
A short description of data set [4]: Cytotoxicity against HEK293 cells assessed as inhibition of cell viability after 48 hrs by MTT assay. It is filed as toxicity, cell-based. The settings on record: human.
In a further data set the test system is Staphylococcus aureus. Nature of the data set: Antibacterial activity against Staphylococcus aureus after 24 hrs by broth dilution method. It is filed as functional. (In general: In broth dilution the organism is exposed to a series of concentrations in liquid medium.)
The subject of a further data set is Bacillus subtilis. Nature of the data set: Antibacterial activity against Bacillus subtilis after 24 hrs by broth dilution method. It is filed as functional.
Another data set concerns Klebsiella pneumoniae. Nature of the data set: Antibacterial activity against Klebsiella pneumoniae after 24 hrs by broth dilution method. It is filed as functional.
The subject of a further data set is Escherichia coli. Nature of the data set: Antibacterial activity against Escherichia coli after 24 hrs by broth dilution method. It is filed as functional.
A further data set has as its system Aspergillus niger. Nature of the data set: Antifungal activity against Aspergillus niger by agar streak dilution method. It is filed as functional.
Data set [5] in a line: Antifungal activity against Penicillium notatum by agar streak dilution method. The following applies: Penicillium chrysogenum. It is filed as functional.

As for `CC(C=C(O)c1ccccc1)=N/N=C1/c2cc(Br)ccc2-n2c1nc1ccccc1c2=O`, the 50% inhibitory concentration (IC50) (as a rule, the midpoint of a concentration-inhibition curve) turned out to be 7.14 µM in data set [1], 9.18 µM in data set [2] and 10.6 µM in data set [3]. In data set [4], the IC50 at 48 h was 46.1 µM. Besides, the MIC – broadly, the least concentration at which growth counts as inhibited – in the data set on Staphylococcus aureus is above 100 µg/mL; in the data set on Bacillus subtilis, above 100 µg/mL; against Klebsiella pneumoniae, above 100 µg/mL; against Escherichia coli it was above 100 µg/mL; against Aspergillus niger, 25 µg/mL (≈ 51.5 µM); in data set [5], 25 µg/mL (≈ 51.5 µM).
On to `O=c1c2ccccc2nc2n1-c1ccc(Br)cc1/C2=N/N=C1/C=C(O)c2ccccc21`, for which the IC50 was 15.9 µM in data set [1], 20.4 µM in data set [2] and 17 µM in [3]. In addition, in [4], the IC50 at 48 h was determined as 55.2 µM. The MIC worked out at 1.56 µg/mL (≈ 3.33 µM) in the data set on Staphylococcus aureus; 1.56 µg/mL (≈ 3.33 µM) against Bacillus subtilis; 3.12 µg/mL (≈ 6.66 µM) with Klebsiella pneumoniae; 3.12 µg/mL (≈ 6.66 µM) in the data set with Escherichia coli; 3.12 µg/mL (≈ 6.66 µM) in the data set on Aspergillus niger; 6.25 µg/mL (≈ 13.3 µM) in data set [5].
Take `CC(C=C(O)c1ccccc1)=N/N=C1/c2ccccc2-n2c1nc1ccccc1c2=O`: the half-inhibitory concentration (IC50) is 26.2 µM in [1], 17.6 µM in data set [2] and 25.2 µM in data set [3]. In addition, the IC50 at 48 h in data set [4] was found to be 68.1 µM. The MIC was above 100 µg/mL against Staphylococcus aureus; above 100 µg/mL in the data set with Bacillus subtilis; above 100 µg/mL with Klebsiella pneumoniae; above 100 µg/mL in the data set with Escherichia coli; 25 µg/mL (≈ 61.5 µM) with Aspergillus niger; 25 µg/mL (≈ 61.5 µM) in data set [5].
As to `N/N=C1/c2cc(Br)ccc2-n2c1nc1ccccc1c2=O`, the values for the half-maximal inhibitory concentration (IC50) in data set [1], in data set [2] and in data set [3] were 23.2 µM, 23.1 µM and 22.1 µM, respectively. Besides, the MIC in the data set on Staphylococcus aureus is above 100 µg/mL; in the data set with Bacillus subtilis it was 50 µg/mL (≈ 147 µM); against Klebsiella pneumoniae, 25 µg/mL (≈ 73.3 µM); against Escherichia coli, above 100 µg/mL; in the data set with Aspergillus niger, 50 µg/mL (≈ 147 µM); in [5], 50 µg/mL (≈ 147 µM).
For `CCO/C(O)=C/C(C)=N/N=C1/c2cc(Br)ccc2-n2c1nc1ccccc1c2=O`, the half-maximal inhibitory concentration (IC50) in data set [1] amounted to 36.6 µM; in data set [2], 40 µM; in data set [3] it was 36.7 µM. In addition, the minimal inhibitory concentration (MIC) against Staphylococcus aureus is 1.56 µg/mL (≈ 3.45 µM); in the data set on Bacillus subtilis, 3.12 µg/mL (≈ 6.89 µM); against Klebsiella pneumoniae, 12.5 µg/mL (≈ 27.6 µM); in the data set on Escherichia coli it was 6.25 µg/mL (≈ 13.8 µM); against Aspergillus niger it was 6.25 µg/mL (≈ 13.8 µM); in data set [5], 3.12 µg/mL (≈ 6.89 µM).
For `N/N=C1/c2ccccc2-n2c1nc1ccccc1c2=O`, the IC50 in data set [1] is 25.2 µM; in [2], 28.7 µM; in data set [3], 25.6 µM. Moreover, the MIC in the data set with Staphylococcus aureus was 50 µg/mL (≈ 191 µM); with Bacillus subtilis, above 100 µg/mL; in the data set with Klebsiella pneumoniae it was 50 µg/mL (≈ 191 µM); in the data set on Escherichia coli, above 100 µg/mL; against Aspergillus niger, 50 µg/mL (≈ 191 µM); in data set [5], above 100 µg/mL.
